Values quoted from earlier work as cited in paper PMC8198792, “Prediction of Anticancer Peptides with High Efficacy and Low Toxicity by Hybrid Model Based on 3D Structure of Peptides” (International Journal of Molecular Sciences, 2021).
Where two headings read alike, the source gives them in different places.

Legend:
cancer cell lines = test system: cancer cell lines; design: method as in 6 sources, ref CancerPPD [45] and SATPdb ||| ref CancerPPD/SATPdb ||| ref CancerPPD, SATPdb, Swissprot (PDB) ||| ref CancerPPD/SATPdb/Swissprot(PDB) ||| ref CancerPPD / SATPdb ||| ...; details: cited from earlier work
Description: Supplement ijms-22-05630-s001.zip/ACPs(seguence).xlsx, sheet "D1" | column: Activity || Supplement ijms-22-05630-s001.zip/ACPs(seguence).xlsx, sheet "D2" | column: Activity || Supplement ijms-22-05630-s001.zip/ACPs(seguence).xlsx, sheet "D3" | column: Activity || (+ 2 further places)

[1] = test system: many types of cells, including non-cancer cells; details: cited from earlier work; for Activity: toxic peptides dataset TD2, class label 1 (toxic, positive set) or 0 (non-toxic AMP, negative set), ref SATPdb
erythrocytes = details: cited from earlier work
Description: Supplement ijms-22-05630-s001.zip/Hemloytic Peptides(seguence).xlsx, sheet "HD1" | column: Activity || Supplement ijms-22-05630-s001.zip/Hemloytic Peptides(seguence).xlsx, sheet "HD2" | column: Activity || Supplement ijms-22-05630-s001.zip/Hemloytic Peptides(seguence).xlsx, sheet "HD3" | column: Activity

[2] = ACPs dataset D3 (sheet "D3"), label 1 = ACP, 0 = non-ACP, ref CancerPPD/SATPdb
[3] = ACPs dataset D4 (sheet "D4"), label 1 = ACP, 0 = non-ACP, ref CancerPPD / SATPdb
[4] = ACPs dataset D5, sheet "D5", label 1 = ACP, 0 = non-ACP, ref CancerPPD [45] and SATPdb
[5] = ACPs dataset D3 (supplement sheet "D3"), 1 = ACP, 0 = non-ACP, ref CancerPPD [45] and SATPdb
[6] = ACPs dataset D1, 1 = ACP (positive), 0 = non-ACP (negative), label taken from databases, ref CancerPPD [45] and SATPdb
[7] = ACPs dataset D4 (sheet "D4"), label 1 = ACP (CancerPPD ID), 0 = non-ACP (non-anticancer AMP, SATPdb ID), ref CancerPPD [45] and SATPdb
[8] = Hemolytic peptides dataset HD2, label 1 = hemolytic, 0 = non-hemolytic, ref Hemolytik/SATPdb
[9] = hemolytic peptides dataset HD3, 1 = hemolytic (positive set), 0 = non-hemolytic (negative set), labels taken from databases, ref Hemolytik/SATPdb

FLWGLIPGAISAVTSLIKK [satpdb12159]
Activity (cancer cell lines; [2]): 0
Activity (cancer cell lines; [3]): 0
Activity (cancer cell lines; [4]): 0
Activity [1]: 0

IWSAIWSGIKGLL [satpdb12218]
Activity (cancer cell lines; [2]): 0
Activity (cancer cell lines; [3]): 0
Activity (cancer cell lines; [4]): 0
Activity [1]: 0

GVWDWLKKTAKNVWNSDIVKQLKGKAINAAKNYVAEKIGATPS [satpdb11887]
Activity (cancer cell lines; [5]): 0
Activity (cancer cell lines; [3]): 0
Activity (cancer cell lines; [4]): 0
Activity [1]: 0

GVVTDLLKTAGKLLGNLFGSLSG [satpdb14110]
Activity (cancer cell lines; [2]): 0
Activity (cancer cell lines; [3]): 0
Activity (cancer cell lines; [4]): 0
Activity [1]: 1

GLLSGILNTAGGLLGNLIGSLSN [satpdb13955]
Activity (cancer cell lines; [2]): 0
Activity (cancer cell lines; [3]): 0
Activity (cancer cell lines; [4]): 0
Activity [1]: 0

GLWSTIKQKGKEAAIAAAKAAGQAVLNSASEAL [satpdb11971]
Activity (cancer cell lines; [2]): 0
Activity (cancer cell lines; [3]): 0
Activity (cancer cell lines; [4]): 0
Activity [1]: 0

HFLGTLVNLAKKIL [satpdb13929]
Activity (cancer cell lines; [2]): 0
Activity (cancer cell lines; [3]): 0
Activity (cancer cell lines; [4]): 0
Activity [1]: 1

GFGSLLGKALRLGANVL [satpdb12093]
Activity (cancer cell lines; [2]): 0
Activity (cancer cell lines; [3]): 0
Activity (cancer cell lines; [4]): 0
Activity [1]: 0

AVLDILKDVGKGLLSHFMEKV [satpdb13844]
Activity (cancer cell lines; [2]): 0
Activity (cancer cell lines; [3]): 0
Activity (cancer cell lines; [4]): 0
Activity [1]: 0

VIPFVASVAAEMMQHVYCAASKKC [satpdb10043, toxic peptide, datasets TD1 and TD3]
Activity (cancer cell lines; [6]): 0
Activity (cancer cell lines; [7]): 0
Activity (dataset TD1, toxic 1 / non-toxic 0) ([1]; natural toxic peptide dataset TD1, label collected from database, ref SATPdb [34]): 1

FVGAIAAALPHVISAIKNAL [satpdb12079]
Activity (cancer cell lines; [2]): 0
Activity (cancer cell lines; [3]): 0
Activity (cancer cell lines; [4]): 0
Activity [1]: 1
Activity (erythrocytes; [8]): 1
Activity (erythrocytes; [9]): 1

FLSLLPSLVSGAVSLVKIL [satpdb10512]
Activity (cancer cell lines; [5]): 0
Activity (cancer cell lines; [3]): 0
Activity (cancer cell lines; [4]): 0
Activity [1]: 0

ILPFLAGLFSKIL [satpdb10916]
Activity (cancer cell lines; [5]): 0
Activity (cancer cell lines; [3]): 0
Activity (cancer cell lines; [4]): 0
Activity [1]: 0

GKVLDKFGKIVGKVLKQLKKVSAVAKV [satpdb11239]
Activity (cancer cell lines; [5]): 0
Activity (cancer cell lines; [3]): 0
Activity (cancer cell lines; [4]): 0
Activity [1]: 1

VOLFPWFNQY [satpdb12517]
Activity (cancer cell lines; [2]): 0
Activity (cancer cell lines; [3]): 0
Activity (cancer cell lines; [4]): 0
Activity [1]: 0

FLGLLPSIVSGAVSLVKKL [satpdb10320]
Activity (cancer cell lines; [5]): 0
Activity (cancer cell lines; [3]): 0
Activity (cancer cell lines; [4]): 0
Activity [1]: 0

GLADFLNKAVGKVVDFVKS [satpdb10833]
Activity (cancer cell lines; [5]): 0
Activity (cancer cell lines; [3]): 0
Activity (cancer cell lines; [4]): 0
Activity [1]: 0

LSPNLLKSLL [satpdb13883]
Activity (cancer cell lines; [2]): 0
Activity (cancer cell lines; [3]): 0
Activity (cancer cell lines; [4]): 0
Activity [1]: 0

GLFGILGSVAKHVLPHVIPVVAEHL [satpdb11946]
Activity (cancer cell lines; [2]): 0
Activity (cancer cell lines; [3]): 0
Activity (cancer cell lines; [4]): 0
Activity [1]: 0

GLLGTLGNLLNGLGL [satpdb12279]
Activity (cancer cell lines; [2]): 0
Activity (cancer cell lines; [3]): 0
Activity (cancer cell lines; [4]): 0
Activity [1]: 0

KWKVFKKIEKMGRNIRNGIVKAGPAIAVLGEAKAILS [satpdb11163]
Activity (cancer cell lines; [5]): 0
Activity (cancer cell lines; [3]): 0
Activity (cancer cell lines; [4]): 0
Activity [1]: 0

VOLFPFFNQY [satpdb13046]
Activity (cancer cell lines; [2]): 0
Activity (cancer cell lines; [3]): 0
Activity (cancer cell lines; [4]): 0
Activity [1]: 0

LIGPVLGLVGSALGGLLKKI [satpdb10453]
Activity (cancer cell lines; [5]): 0
Activity (cancer cell lines; [3]): 0
Activity (cancer cell lines; [4]): 0
Activity [1]: 1

KCNTATCATQRLANFLVHSSNNFGAILSSTNVGSNTY [satpdb11357]
Activity (cancer cell lines; [5]): 0
Activity (cancer cell lines; [3]): 0
Activity (cancer cell lines; [4]): 0
Activity [1]: 0

ALALLOHALHOLALLAOHLAHOLALA [satpdb11016]
Activity (cancer cell lines; [5]): 0
Activity [1]: 0

GMFTNMLKGIGKLAGQAALGAVKTLA [satpdb11616]
Activity (cancer cell lines; [5]): 0
Activity (cancer cell lines; [3]): 0
Activity (cancer cell lines; [4]): 0
Activity [1]: 0

GFRDVLKGAAKAFVKTVAGHIAN [satpdb12067]
Activity (cancer cell lines; [2]): 0
Activity (cancer cell lines; [3]): 0
Activity (cancer cell lines; [4]): 0
Activity [1]: 0

SILPTIVSFLTKFL [satpdb10195]
Activity (cancer cell lines; [5]): 0
Activity (cancer cell lines; [3]): 0
Activity (cancer cell lines; [4]): 0
Activity [1]: 0

FFPIVGKLLFGLSGLL [satpdb12681]
Activity (cancer cell lines; [2]): 0
Activity (cancer cell lines; [3]): 0
Activity (cancer cell lines; [4]): 0
Activity [1]: 0

GFLGSLLKTGLKVGSNLL [satpdb10293]
Activity (cancer cell lines; [6]): 0
Activity (cancer cell lines; [7]): 0
Activity [1]: 1

VGKVLKQLKKVSAVAKVAMKKGAALLK [satpdb11069]
Activity (cancer cell lines; [5]): 0
Activity (cancer cell lines; [3]): 0
Activity (cancer cell lines; [4]): 0
Activity [1]: 1

FLPFLKSILGKIL [satpdb13847]
Activity (cancer cell lines; [2]): 0
Activity (cancer cell lines; [3]): 0
Activity (cancer cell lines; [4]): 0
Activity [1]: 0

RADTQTYQPYNKDWIKEKIYVLLRRQAQQAGK [satpdb14189]
Activity (cancer cell lines; [2]): 0
Activity (cancer cell lines; [3]): 0
Activity (cancer cell lines; [4]): 0
Activity [1]: 0

GLLGPLLKIAAKVGSNLL [satpdb10126]
Activity [1]: 1
Activity (erythrocytes): 1

ILPILGNLLNGLL [satpdb12015]
Activity (cancer cell lines; [2]): 0
Activity (cancer cell lines; [3]): 0
Activity (cancer cell lines; [4]): 0
Activity [1]: 1

ILQKAVLDCLKAAGSSLSKAAITAIYNKIT [satpdb12333]
Activity (cancer cell lines; [2]): 0
Activity (cancer cell lines; [3]): 0
Activity (cancer cell lines; [4]): 0
Activity [1]: 0

AMWKDVLKKIGTVALHAGKAALGAVADTISQ [satpdb14434]
Activity (cancer cell lines; [2]): 0
Activity (cancer cell lines; [3]): 0
Activity (cancer cell lines; [4]): 0
Activity [1]: 0

KFGKIVGKVLKQLKKVSAVAKVAMKKG [satpdb11425]
Activity (cancer cell lines; [5]): 0
Activity (cancer cell lines; [3]): 0
Activity (cancer cell lines; [4]): 0
Activity [1]: 1

FFGWLIRGAIHAGKAIHGLIHRRRH [satpdb10145]
Activity (cancer cell lines; [6]): 0
Activity (cancer cell lines; [7]): 0
Activity [1]: 1
Activity (erythrocytes): 1

WRSLGRTLLRLSHALKPLARRSGW [satpdb10596]
Activity (cancer cell lines; [5]): 0
Activity (cancer cell lines; [3]): 0
Activity (cancer cell lines; [4]): 0
Activity [1]: 0

AIGSILGALAKGLPTLISWIKNR [satpdb14614]
Activity (cancer cell lines; [2]): 0
Activity (cancer cell lines; [3]): 0
Activity (cancer cell lines; [4]): 0
Activity [1]: 1

LLSLVPHAINAVSAIAKHF [satpdb10338]
Activity (cancer cell lines; [5]): 0
Activity (cancer cell lines; [3]): 0
Activity (cancer cell lines; [4]): 0
Activity [1]: 0

NLLGSLLKTGLKVGSNLL [satpdb11204]
Activity (cancer cell lines; [5]): 0
Activity (cancer cell lines; [3]): 0
Activity (cancer cell lines; [4]): 0
Activity [1]: 1

RGGRLCYCRPRFCVCVGR [satpdb12800]
Activity (cancer cell lines; [2]): 0
Activity (cancer cell lines; [3]): 0
Activity (cancer cell lines; [4]): 0
Activity [1]: 0

RGGRLCYCRRRFCICV [satpdb14720]
Activity (cancer cell lines; [2]): 0
Activity (cancer cell lines; [3]): 0
Activity (cancer cell lines; [4]): 0
Activity [1]: 0

ILGPVIKTIGGVIGGLLKNL [satpdb10308]
Activity (cancer cell lines; [5]): 0
Activity (cancer cell lines; [3]): 0
Activity (cancer cell lines; [4]): 0
Activity [1]: 1

IDWKKLLDAAKQIL [satpdb24876]
Activity [1]: 1
Activity (erythrocytes; [8]): 0
Activity (erythrocytes; [9]): 0
